Laboratory results as given in patent publication US20190119282A1, “IMIDAZOPYRIDAZINES USEFUL AS INHIBITORS OF THE PAR-2 SIGNALING PATHWAY” (Vertex Pharmaceuticals Incorporated, priority 2013, published 2019).
Marks after values point to notes of the source that are not given here.

Experiments:
[1] = target: T1, PAR2 (HT-29 cells, SLIGKV activation) (Homo sapiens, UniProt P55085); test: Ca FLIPR TETRA assay, ANTAGONIST mode, stimulation with 8 μM SLIGKV; assay type: cell-based; conditions: HT-29 cells, antagonist mode, stimulation with 8 μM SLIGKV
T1 construct: host or cells: HT-29 cells
T1 sequence (P55085 26-397): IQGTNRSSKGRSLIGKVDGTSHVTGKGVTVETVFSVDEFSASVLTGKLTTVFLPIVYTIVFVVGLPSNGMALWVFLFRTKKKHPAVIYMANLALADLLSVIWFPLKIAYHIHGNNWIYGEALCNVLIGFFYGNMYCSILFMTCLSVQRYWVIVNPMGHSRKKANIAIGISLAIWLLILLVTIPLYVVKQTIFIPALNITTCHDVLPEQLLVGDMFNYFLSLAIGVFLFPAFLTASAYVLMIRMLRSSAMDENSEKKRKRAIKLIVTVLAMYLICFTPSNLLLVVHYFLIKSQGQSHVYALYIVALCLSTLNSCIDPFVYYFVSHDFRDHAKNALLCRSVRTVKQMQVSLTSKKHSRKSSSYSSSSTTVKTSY
How it was run: (§1)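 HT-29 cells in 1% FBS/McCoy's overnight, loaded with Calcium 5 dye; compounds added and read first for intrinsic Ca2+ activation, then incubated 30 min at r.t. Antagonism read on FLIPR Tetra after stimulation with final 8 μM SLIGKV, 3.1 U/mL trypsin, 1 U/mL thrombin or 0.6 μM UTP.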

[2] = target: T2, PAR2 (HT-29 cells, trypsin activation) (Homo sapiens, UniProt P55085); test: Ca FLIPR TETRA assay, ANTAGONIST mode, stimulation with 3.1 U/mL trypsin; assay type: cell-based; conditions: HT-29 cells, antagonist mode, stimulation with 3.1 U/mL trypsin
T2 construct: host or cells: HT-29 cells
T2 sequence (P55085 26-397): T1 sequence (P55085 26-397)
How it was run: as §1

[3] = tested on: Thrombin-stimulated Ca2+ response in HT-29 cells; test: Ca FLIPR TETRA assay, ANTAGONIST mode, stimulation with 1 U/mL Thrombin; assay type: cell-based, human; conditions: Homo sapiens; HT-29 cells, antagonist mode, stimulation with 1 U/mL Thrombin
How it was run: as §1

[4] = tested on: UTP-stimulated Ca2+ response in HT-29 cells; test: Ca FLIPR TETRA assay, ANTAGONIST mode, stimulation with 0.6 μM UTP; assay type: cell-based, human; conditions: Homo sapiens; HT-29 cells, antagonist mode, stimulation with 0.6 μM UTP
How it was run: as §1

[5] = In vivo rat pharmacokinetics (intravenous and oral); conditions: plasma; for clearance: intravenous 0.5 to 1 mg/kg, read-out: Clp; for Vd: intravenous, read-out: Vss; for bioavailability: oral by gavage; for half-life: read-out: T ½ (converted)
Experimental: Example 61: Protocol for Testing PAR2 Compounds In Vivo Rat Pharmacokinetics Experiments
Compounds delivered by intravenous route were formulated using a solution formulation consisting of 5% N-methylpyrrolidone 10% Vitamin E-TPGS and 85% water (v/v/) or a solution formulation consisting of 25% N-methylpyrrolidone 35% polyethylene glycol 400 and 40% water (v/v/). Intravenous formulations were administered by a bolus injection (over approximately 10 seconds) using a hypodermic needle attaches to a syringe (tail vein). The dose volume was varied from 1 to 2 mL/kg and the dose was varied from 0.5 to 1 mg/kg. Compounds delivered orally were formulated as a solution formulation consisting of 5% N-methylpyrrolidone 10% Vitamin E-TPGS and 85% water (v/v/) or as fine suspension using a cellulose derivative suspending agent with or without the addition of a wetting agent/surfactant. Milling of large particles was performed as needed to reduce particle size using focused electroacoustic milling, homogenization or low energy media milling. A spray-dried solid dispersion was prepared for key compounds using 1:1 combination with cellulose derivatives. Test compounds were administered orally by gavage using a gavage plastic needle attached to a syringe. The dose volume was varied from 5 to 10 mL/kg and the dose was varied from 1 to 600 mg/kg.
Rats were bled by venipuncture (jugular vein) and the samples were collected into tubes containing K3EDTA. The tubes were placed on wet ice until processed. The samples were centrifuged for approximately 10 minutes (at approximately 4° C.) within approximately 30 minutes of collection to prepare plasma or diluted in citrate buffer (1:3) and stored frozen (approximately −30° C.). Thawed plasma or whole blood samples were extracted by protein precipitation using an organic solvent followed by centrifugation. The supernatants were separated by high-performance liquid chromatography coupled to mass spectrometry detection. A calibration curve was prepared using reference standard compounds spiked into either blank plasma or whole blood matrices and extracted similarly to unknown samples. Pharmacokinetic parameters were calculated using non-compartmental analysis.

[6] = tested on: carrageenan-induced paw edema; test: Rat carrageenan-induced paw edema model; assay type: in vivo, Sprague Dawley rats; conditions: given before carrageenan challenge
Experimental: Male Sprague Dawley rats and BALB/c mice were housed in groups in a temperature controlled room and were acclimatized in the animal facility for at least three days prior to use. Experiments were performed during the light phase of the cycle. Animals have food and water ad libitum.
Example 63: Rat Carrageenan-Induced Paw Edema Model
Peripheral inflammation was induced by intra-plantar administration of 100 ul of a 1% w/volume (in saline) carrageenan solution under isoflurane anesthesia. The degree of swelling was assessed using the plethysmometer at 2-3-4-5-6 h after carrageenan injection. Test compound or vehicle (0.5% MC/0.1% SDS) was systemically administered at the indicated doses in a volume of 5 mL/kg either I-3 hour before carrageenan challenge (Table 9) or 2 hours post carrageenan challenge (Table 10).
Data are expressed as the mean % effect. Statistical significance was assessed using t-test for comparison between naive and inflamed rats, and one-way ANOVA followed by post-hoc comparison test for overall drug effectiveness. A difference between groups is considered significant with a p value of <0.05. *, p<0.05; **, p<0.01; ***, p<0.001 vs. vehicle.

| Compound | IC50 [1] | IC50 [2] | IC50 [3] | IC50 [4] | clearance [5] | Vd [5] | bioavailability [5] | half-life [5] | % inhibition of carrageenan induced paw edema ([6]; dose 10 mg/kg) | % inhibition of carrageenan induced paw edema ([6]; dose 1 mg/kg) | % inhibition of carrageenan induced paw edema ([6]; dose 30 mg/kg) | % inhibition of carrageenan induced paw edema ([6]; dose 7 mg/kg) | % inhibition of carrageenan induced paw edema ([6]; dose 5 mg/kg) | % inhibition of carrageenan induced paw edema ([6]; dose 20 mg/kg) | % inhibition of carrageenan induced paw edema ([6]; dose 7.5 mg/kg) | % inhibition of carrageenan induced paw edema ([6]; dose 0.3 mg/kg) | % inhibition of carrageenan induced paw edema ([6]; dose 50 mg/kg) |
| --- | --- | --- | --- | --- | --- | --- | --- | --- | --- | --- | --- | --- | --- | --- | --- | --- | --- |
| C[C@@H]1C[C@H](c2cc(-c3ccc(F)cc3)nn3cc(C(=O)N4CCN(C(=O)[C@H]5C[C@](O)(C(F)(F)F)C5)CC4(C)C)nc23)C[C@H](C)O1 [Compound I-213] | 3.5 nM | 5.4 nM | > 1000 nM | > 1000 nM |  |  |  |  |  |  |  | 36* % |  |  |  |  |  |
| CC(C)(C)c1cc(-c2ccc(C(F)(F)F)cc2)nn2cc(C(=O)N3CCNC(=O)C3(C)C)nc12 [Compound I-283, 4-[8-tert-butyl-6-[4-(trifluoromethyl)phenyl]imidazo[1,2-b]pyridazine-2-carbonyl]-3,3-dimethyl-piperazin-2-one] | 2.2 nM | 2 nM | > 1000 nM | > 1000 nM | 1.07 mL/min/kg | 6.82 L/kg | 76% | 77.9 h |  |  |  |  |  | 19* % |  |  |  |
| Cc1cc(-c2cc(C(C)(C)C)c3nc(C(=O)N4CCN(c5cn[nH]c5)C(=O)C4(C)C)cn3n2)ccc1F [Compound I-417] | 2.5 nM | 3.2 nM | > 1000 nM | > 1000 nM |  |  |  |  |  |  |  |  |  | 32** % |  |  |  |
| CC(C)(C)c1cc(C2CCC(F)(F)CC2)nn2cc(C(=O)N3CCN(c4cn[nH]c4)C(=O)C3(C)C)nc12 [Compound I-429] | 2.4 nM | 3.3 nM | > 1000 nM | > 1000 nM |  |  |  |  |  |  |  |  |  | 43** % |  |  |  |
| Cc1nnc(C(=O)N2CCN(C(=O)c3cn4nc(C5CCC(F)(F)CC5)cc(C(C)(C)C)c4n3)C(C)(C)C2)[nH]1 [Compound I-448, [8-tert-butyl-6-(4,4-difluorocyclohexyl)imidazo[1,2-b]pyridazin-2-yl]-[2,2-dimethyl-4-(5-methyl-4H-1,2,4-triazole-3-carbonyl)piperazin-1-yl]methanone] | 6.9 nM | 11.4 nM | 17500 nM | 14500 nM | 6.44 mL/min/kg | 1.84 L/kg | 87% | 5.14 h |  |  |  |  |  | 15% |  |  |  |
| CC(C)(C)c1cc(-c2ccc(C(F)(F)F)cc2)nn2cc(C(=O)N3CCN(c4cn[nH]c4)C(=O)C3(C)C)nc12 [Compound I-366] | 2.2 nM | 2.5 nM | > 1000 nM | > 1000 nM |  |  |  |  |  |  |  |  |  | 43** % |  |  |  |
| Cc1n[nH]c(C(=O)N2CCN(C(=O)c3cn4nc(-c5ccc(F)cc5)cc(C(C)(C)C)c4n3)CC2)n1 [Compound I-525] | 116 nM | 247 nM | > 1000 nM | > 1000 nM |  |  |  |  |  |  |  |  |  |  |  |  | 9% |

Compounds with a lower IC50 [1], results first:

| IC50 [1] | IC50 [2] | IC50 [3] | IC50 [4] | clearance [5] | Vd [5] | bioavailability [5] | half-life [5] | Compound | % inhibition of carrageenan induced paw edema ([6]; dose 10 mg/kg) | % inhibition of carrageenan induced paw edema ([6]; dose 1 mg/kg) | % inhibition of carrageenan induced paw edema ([6]; dose 30 mg/kg) | % inhibition of carrageenan induced paw edema ([6]; dose 7 mg/kg) | % inhibition of carrageenan induced paw edema ([6]; dose 5 mg/kg) | % inhibition of carrageenan induced paw edema ([6]; dose 20 mg/kg) | % inhibition of carrageenan induced paw edema ([6]; dose 7.5 mg/kg) | % inhibition of carrageenan induced paw edema ([6]; dose 0.3 mg/kg) | % inhibition of carrageenan induced paw edema ([6]; dose 50 mg/kg) |
| --- | --- | --- | --- | --- | --- | --- | --- | --- | --- | --- | --- | --- | --- | --- | --- | --- | --- |
| 1 nM | 1.4 nM | 890 nM | 900 nM | 16.9 mL/min/kg | 3.3 L/kg | 75% | 2.5 h | CC(C)(C)c1cc(-c2ccc(F)cc2)nn2cc(C(=O)N3CCN(C(=O)c4c[nH]cn4)CC3(C)C)nc12 [Compound I-232] | 19* % |  |  |  |  |  |  |  |  |
| 0.3 nM | 0.4 nM | 11000 nM | 3600 nM | 4.21 mL/min/kg | 2.05 L/kg | 77% | 7.5 h | Cc1nc(C(=O)N2CCN(C(=O)c3cn4nc(-c5ccc(Cl)cc5)cc(C(C)(C)C)c4n3)C(C)(C)C2)n[nH]1 [Compound I-436, [8-tert-butyl-6-(4-chlorophenyl)imidazo[1,2-b]pyridazin-2-yl]-[2,2-dimethyl-4-(5-methyl-1H-1,2,4-triazole-3-carbonyl)piperazin-1-yl]methanone] |  | −17* % | 36** % |  |  |  |  |  |  |
| 0.3 nM | 0.2 nM | > 1000 nM | > 1000 nM | 6.15 mL/min/kg | 3.07 L/kg | 189% | 9.62 h | CC(C)(C)c1cc(-c2ccc(Cl)cc2)nn2cc(C(=O)N3CCN(C(=O)[C@H]4C[C@@](C)(O)C4)CC3(C)C)nc12 [Compound I-421] | −32** % | 11% |  |  |  |  |  |  |  |
| 0.2 nM | 0.3 nM | 750 nM | 670 nM |  |  |  |  | Cc1cc(C(=O)N2CCN(C(=O)c3cn4nc(-c5ccc(F)cc5)cc(C(C)(C)C)c4n3)C(C)(C)C2)[nH]n1 [Compound I-291] |  |  |  |  | 37** % |  |  |  |  |
| 0.6 nM | 1 nM | > 1000 nM | 880 nM |  |  |  |  | CC(C)(C)c1cc(-c2ccc(F)cc2)nn2cc(C(=O)N3CCN(c4cn[nH]c4)C(=O)C3(C)C)nc12 [Compound I-310] |  |  |  |  | 25** % |  |  |  |  |
| 0.1 nM | 0.2 nM | > 1000 nM | > 1000 nM | 3.2 mL/min/kg | 4.2 L/kg | 67% | 18.1 h | CC(C)(C)c1cc(-c2ccc(F)cc2)nn2cc(C(=O)N3CCN(C(=O)C4CC(O)(C(F)(F)F)C4)CC3(C)C)nc12 (centres unmarked) [Compound I-199] |  |  |  |  |  | 52*** % | 14% |  |  |
| 0.7 nM | 1.6 nM | 570 nM | 420 nM |  |  |  |  | CC(C)(C)c1cc(-c2ccc(F)cc2)nn2cc(C(=O)N3CCN(C(=O)c4nc[nH]n4)CC3(C)C)nc12 [Compound I-227] | 64** % |  |  |  |  |  |  | 35* % |  |
